ChEMBL document CHEMBL3044586, “Design, synthesis, and anticonvulsant screening of some substituted piperazine and aniline derivatives of 5-phenyl-oxazolidin-2,4-diones and 5,5-diphenylimidazolidin-2,4 diones” (Med Chem Res, 2012)
Calls of active or inactive are those of the source. The calls are words filed in the database; no cut-off is given here.

Legend:
Mus musculus [1] = assay: Neurotoxicity against Mus musculus Swiss albino (mouse) assessed as inability to maintain equilibrium on rod at 100 mg/kg, ip measured after 0.5 hr by rotarod test; format: toxicity, organism-based; parameters: dose 100 mg/kg, route intraperitoneal; details: in vivo
Mus musculus [2] = assay: Anticonvulsant activity in Mus musculus Swiss albino (mouse) assessed as reduction in maximal electroshock-induced seizure at 30 mg/kg, ip measured after 4 hr; format: functional, organism-based; parameters: dose 30 mg/kg
Rattus norvegicus [3] = assay: Anticonvulsant activity in Rattus norvegicus Wistar (rat) assessed as reduction in maximal electroshock-induced seizures at 30 mg/kg, po measured after 0.5 hr; format: functional, organism-based; parameters: dose 30 mg/kg
Mus musculus [4] = assay: Anticonvulsant activity in Mus musculus Swiss albino (mouse) assessed as reduction in maximal electroshock-induced seizure at 30 mg/kg, ip measured after 0.5 hr; format: functional, organism-based; parameters: dose 30 mg/kg
Mus musculus [5] = assay: Neurotoxicity against Mus musculus Swiss albino (mouse) assessed as inability to maintain equilibrium on rod at 100 mg/kg, ip measured after 4 hr by rotarod test; format: toxicity, organism-based; parameters: dose 100 mg/kg, route intraperitoneal; details: in vivo
Rattus norvegicus [6] = assay: Neurotoxicity against Rattus norvegicus Wistar (rat) assessed as inability to maintain equilibrium on rod at 30 mg/kg, po measured after 0.5 hr by rotarod test; format: toxicity, organism-based; parameters: dose 30 mg/kg, route oral; details: in vivo
Rattus norvegicus [7] = assay: Anticonvulsant activity in Rattus norvegicus Wistar (rat) assessed as reduction in maximal electroshock-induced seizures at 30 mg/kg, po measured after 4 hr; format: functional, organism-based; parameters: dose 30 mg/kg
Rattus norvegicus [8] = assay: Neurotoxicity against Rattus norvegicus Wistar (rat) assessed as inability to maintain equilibrium on rod at 30 mg/kg, po measured after 4 hr by rotarod test; format: toxicity, organism-based; parameters: dose 30 mg/kg, route oral; details: in vivo
Rattus norvegicus [9] = assay: Presynaptic agonist activity at 5HT1A receptor in Rattus norvegicus Wistar (rat) assessed as change in rectal temperature at 20 mg/kg, ip measured after 60 min (reference value: 0.0 +/- 0.1 degC); format: functional, organism-based; parameters: dose 20 mg/kg
Mus musculus [10] = assay: Neurotoxicity against Mus musculus Swiss albino (mouse) assessed as inability to maintain equilibrium on rod at 30 to 300 mg/kg, ip measured after 0.5 hr by rotarod test; format: toxicity, organism-based; parameters: dose 30-300 mg/kg, route intraperitoneal; details: in vivo
Rattus norvegicus [11] = assay: Presynaptic agonist activity at 5HT1A receptor in Rattus norvegicus Wistar (rat) assessed as change in rectal temperature at 20 mg/kg, ip measured after 120 min (reference value: 0.0 +/- 0.1 degC); format: functional, organism-based; parameters: dose 20 mg/kg
Mus musculus [12] = assay: Neurotoxicity against Mus musculus Swiss albino (mouse) assessed as inability to maintain equilibrium on rod at 30 to 300 mg/kg, ip measured after 4 hr by rotarod test; format: toxicity, organism-based; parameters: dose 30-300 mg/kg, route intraperitoneal; details: in vivo
Rattus norvegicus [13] = assay: Presynaptic agonist activity at 5HT1A receptor in Rattus norvegicus Wistar (rat) assessed as change in rectal temperature at 20 mg/kg, ip measured after 30 min (reference value: -0.1 +/- 0.1 degC); format: functional, organism-based; parameters: dose 20 mg/kg
Rattus norvegicus [14] = assay: Presynaptic agonist activity at 5HT1A receptor in Rattus norvegicus Wistar (rat) assessed as change in rectal temperature at 10 mg/kg, ip measured after 60 min (reference value: 0.0 +/- 0.1 degC); format: functional, organism-based; parameters: dose 10 mg/kg
Rattus norvegicus [15] = assay: Presynaptic agonist activity at 5HT1A receptor in Rattus norvegicus Wistar (rat) assessed as change in rectal temperature at 10 mg/kg, ip measured after 90 min (reference value: -0.2 +/- 0.1 degC); format: functional, organism-based; parameters: dose 10 mg/kg
Mus musculus [16] = assay: Binding affinity to 5HT2A receptor in ip dosed Mus musculus Swiss albino (mouse) assessed as effect on +/-DOI-induced head twitching administered 60 min prior to +/-DOI-challenge measured for 20 min; format: functional, organism-based
Rattus norvegicus [17] = assay: Presynaptic agonist activity at 5HT1A receptor in Rattus norvegicus Wistar (rat) assessed as change in rectal temperature at 10 mg/kg, ip measured after 30 min (reference value: -0.1 +/- 0.1 degC); format: functional, organism-based; parameters: dose 10 mg/kg
Mus musculus [18] = assay: Anticonvulsant activity in Mus musculus Swiss albino (mouse) assessed as reduction in maximal electroshock-induced seizure at 100 mg/kg, ip measured after 0.5 hr; format: functional, organism-based; parameters: dose 100 mg/kg
Mus musculus [19] = assay: Anticonvulsant activity in Mus musculus Swiss albino (mouse) assessed as reduction in maximal electroshock-induced seizure at 300 mg/kg, ip measured after 0.5 hr; format: functional, organism-based; parameters: dose 300 mg/kg
Mus musculus [20] = assay: Anticonvulsant activity in Mus musculus Swiss albino (mouse) assessed as reduction in maximal electroshock-induced seizure at 100 mg/kg, ip measured after 4 hr; format: functional, organism-based; parameters: dose 100 mg/kg
Rattus norvegicus [21] = assay: Postsynaptic agonist activity at 5HT1A receptor in Rattus norvegicus Wistar (rat) assessed as increase in lower lip retraction at 10 to 20 mg/kg, ip measured after 15 min; format: functional, organism-based
Rattus norvegicus [22] = assay: Presynaptic agonist activity at 5HT1A receptor in Rattus norvegicus Wistar (rat) assessed as change in rectal temperature at 10 mg/kg, ip measured after 120 min (reference value: 0.0 +/- 0.1 degC); format: functional, organism-based; parameters: dose 10 mg/kg
Rattus norvegicus [23] = assay: Presynaptic agonist activity at 5HT1A receptor in Rattus norvegicus Wistar (rat) assessed as change in rectal temperature at 20 mg/kg, ip measured after 90 min (reference value: -0.2 +/- 0.1 degC); format: functional, organism-based; parameters: dose 20 mg/kg
Rattus norvegicus [24] = assay: Presynaptic antagonist activity at 5HT1A receptor in Rattus norvegicus Wistar (rat) assessed as change in rectal temperature at 0.1 mg/kg, sc measured after 120 min (reference value: 0.0 +/- 0.1 degC); format: functional, organism-based; parameters: dose 0.1 mg/kg
Rattus norvegicus [25] = assay: Presynaptic antagonist activity at 5HT1A receptor in Rattus norvegicus Wistar (rat) assessed as change in rectal temperature at 0.1 mg/kg, sc measured after 90 min (reference value: -0.2 +/- 0.1 degC); format: functional, organism-based; parameters: dose 0.1 mg/kg
Rattus norvegicus [26] = assay: Antagonist activity at 5HT1A receptor in Rattus norvegicus Wistar (rat) assessed as change in rectal temperature at 0.1 mg/kg, sc measured after 30 min (reference value: -0.1 +/- 0.1 degC); format: functional, organism-based; parameters: dose 0.1 mg/kg
Rattus norvegicus [27] = assay: Postsynaptic antagonist activity at 5HT1A receptor in Rattus norvegicus Wistar (rat) assessed as inhibition of 8-OH-DPAT-induced lower lip retraction at 0.1 mg/kg, sc administered 45 min prior to 8-OH-DPAT-challenge measured after 15 min; format: functional, organism-based; parameters: dose 0.1 mg/kg
Rattus norvegicus [28] = assay: Presynaptic antagonist activity at 5HT1A receptor in Rattus norvegicus Wistar (rat) assessed as change in rectal temperature at 0.1 mg/kg, sc measured after 60 min (reference value: 0.0 +/- 0.1 degC); format: functional, organism-based; parameters: dose 0.1 mg/kg

`O=C1NC(=O)C(c2ccccc2)(c2ccccc2)N1` [PHENYTOIN] was tested, and the Activity (Mus musculus [1]) was “Toxic”, the Activity (Mus musculus [2]) was “Active” and the Activity (Rattus norvegicus [3]) was “Active”. The Activity (Mus musculus [4]) was “Active”, the Activity (Mus musculus [5]) was “Toxic” and the Activity (Rattus norvegicus [6]) was “Non-toxic”. The Activity (Rattus norvegicus [7]) was “Active” and the Activity (Rattus norvegicus [8]) was “Non-toxic”.

With `COc1ccc(NCCN2C(=O)NC(c3ccccc3)(c3ccccc3)C2=O)cc1` the deltaT (Rattus norvegicus [9]) was -1.5 °C, the Activity (Rattus norvegicus [3]) was “inactive” and the Activity (Mus musculus [10]) was “Non-toxic”. For the same compound, the deltaT (Rattus norvegicus [11]) was -1.3 °C, the Activity (Mus musculus [12]) was “Non-toxic” and the deltaT (Rattus norvegicus [13]) was -1.2 °C. For the same compound, the Activity (Rattus norvegicus [6]) was “Non-toxic”, the deltaT (Rattus norvegicus [14]) was -0.6 °C and the deltaT (Rattus norvegicus [15]) was -0.8 °C. The Activity (Mus musculus [16]) was “inactive”, the deltaT (Rattus norvegicus [17]) was -0.5 °C and the Activity (Mus musculus [18]) was “Active”. The Activity (Mus musculus [19]) was “Active”, the Activity (Rattus norvegicus [7]) was “inactive” and the Activity (Rattus norvegicus [8]) was “Non-toxic”. For the same compound, the Activity (Mus musculus [20]) was “Active”, the Activity (Rattus norvegicus [21]) was “Active” and the deltaT (Rattus norvegicus [22]) was -0.6 °C. For the same compound, the deltaT (Rattus norvegicus [23]) was -1.8 °C.

With `COc1ccccc1N1CCN(CCN(C(=O)C2CCCCC2)c2ccccn2)CC1` the deltaT (Rattus norvegicus [24]) was 0.2 °C, the deltaT (Rattus norvegicus [25]) was 0.1 °C and the deltaT (Rattus norvegicus [26]) was 0.2 °C. For the same compound, the inhibition (Rattus norvegicus [27]) was “Active” and the deltaT (Rattus norvegicus [28]) was 0.2 °C.
